Reference: patent US5801191A, “Taxoids” (Biophysica Foundation, priority 1995, dated 1998)
Entries after “also recorded” stand apart in the source; their conditions may differ.

Legend:
[1] = tested on: panel of human tumor cell lines; assay: Cytotoxic activity in a panel of human tumor cell lines as compared to paclitaxel
[2] = Water solubility / formulation in aqueous vehicles
Molt-4 T-cell Leukemia = details: molt-4 cells
MCF-7 Breast Carcinoma = details: mcf-7 cells
[3] = tested on: DU-145 Prostate Carcinoma; details: du-145 cells
[4] = tested on: Ln-Cap Prostate Carcinoma; details: lncap cells
[5] = tested on: Ovcar-3 Ovarian Carcinoma; details: ovcar-3 cells
PC-3 Prostate Carcinoma = details: pc-3 cells
[6] = tested on: PC-3 human prostate tumor; assay: In vivo efficacy against established PC-3 human prostate tumor in athymic nude mice
Excerpt: Example 11. In vivo efficacy of Taxoid BP-193

[7] = background; cited from earlier work
[8] = Physician's Desk Reference (1994) 670, cited from earlier work

Row | Structure (SMILES) | cytotoxic activity as compared to paclitaxel [1] | formulation in aqueous vehicles [2] | water solubility as compared with paclitaxel [2] | IC50 (Molt-4 T-cell Leukemia) [nM] | IC50 (MCF-7 Breast Carcinoma) [nM] | IC50 [3] [nM] | IC50 [4] [nM] | IC50 [5] [nM] | IC50 (PC-3 Prostate Carcinoma) [nM] | toxicity as compared with paclitaxel ([6]; PC-3 tumor-bearing mice) | tumor regression ([6]; all mice treated with BP-193) | anti-cellular proliferative activity, as measured by the reduction in tumor growth ([6]; established PC-3 tumor, vs vehicle and Taxol control) | side effects (hypersensitivity, myelosuppression, neuropathy, alopecia, cardio-toxicity) [7] | plasma concentration following infusion [8] | mean steady state volume of distribution ([8]; following infusion) [LIm^2]
1 | CC(=O)O[C@H]1C(=O)[C@@]2(C)[C@H]([C@H](OC(=O)c3ccccc3)[C@]3(O)C[C@H](OC(=O)[C@H](OC(=O)OCC(O)CO)[C@@H](NC(=O)c4ccccc4)c4ccccc4)C(C)=C1C3(C)C)[C@]1(OC(C)=O)CO[C@@H]1C[C@@H]2O (stereo partly shown) [BP-171, 2'-(2",3"-dihydroxypropylcarbonoxy)paclitaxel] | cytotoxic activity equal to, or greater than, paclitaxel | readily formulated in standard aqueous vehicles | more water soluble than paclitaxel; also recorded: enhanced water solubility as compared with paclitaxel | – | – | – | – | – | – | – | – | – | – | – | –
2 | CC(=O)O[C@H]1C(=O)[C@@]2(C)[C@H]([C@H](OC(=O)c3ccccc3)[C@]3(O)C[C@H](OC(=O)[C@H](OC(=O)NCC(O)CO)[C@@H](NC(=O)c4ccccc4)c4ccccc4)C(C)=C1C3(C)C)[C@]1(OC(C)=O)CO[C@@H]1C[C@@H]2O (stereo partly shown) [BP-174, 2'-(2",3"-dihydroxypropylcarbamoxy) paclitaxel] | comparable cytotoxic activity to paclitaxel | readily formulated in standard aqueous vehicles | more water soluble than paclitaxel; also recorded: enhanced water solubility as compared with paclitaxel | – | – | – | – | – | – | – | – | – | – | – | –
3 | CC(=O)O[C@H]1C(=O)[C@]2(C)[C@@H](OC(=O)OCC(O)CO)C[C@H]3OC[C@@]3(OC(C)=O)[C@H]2[C@H](OC(=O)c2ccccc2)[C@]2(O)C[C@H](OC(=O)[C@H](OC(=O)OCC(O)CO)[C@@H](NC(=O)c3ccccc3)c3ccccc3)C(C)=C1C2(C)C (stereo partly shown) [BP-177, 2',7-di(2",3"-dihydroxypropylcarbonoxy)paclitaxel] | comparable cytotoxic activity to paclitaxel | readily formulated in standard aqueous vehicles | more water soluble than paclitaxel | 703 | 335 | 91.4 | 27.1 | 50 | 57.3 | – | – | – | – | – | –
4 | CC(=O)O[C@H]1C(=O)[C@]2(C)[C@@H](OC(=O)OCC(O)CO)C[C@H]3OC[C@@]3(OC(C)=O)[C@H]2[C@H](OC(=O)c2ccccc2)[C@]2(O)C[C@H](OC(=O)[C@H](O)[C@@H](NC(=O)c3ccccc3)c3ccccc3)C(C)=C1C2(C)C (stereo partly shown) [BP-179, 7-(2",3"-dihydroxypropylcarbonoxy)paclitaxel] | – | – | – | 199 | 815 | 20.5 | 20.5 | 50 | 3.24 | – | – | – | – | – | –
5 | CC(=O)O[C@H]1C(=O)[C@@]2(C)[C@H]([C@H](OC(=O)c3ccccc3)[C@]3(O)C[C@H](OC(=O)[C@H](OC(=O)OCCC(O)CO)[C@@H](NC(=O)c4ccccc4)c4ccccc4)C(C)=C1C3(C)C)[C@]1(OC(C)=O)CO[C@@H]1C[C@@H]2O (stereo partly shown) [BP-193, 2'-(3^11,4"-dihydroxybutyl-carbonoxy)paclitaxel] | cytotoxic activity equal to, or greater than, paclitaxel | readily formulated in standard aqueous vehicles | more water soluble than paclitaxel | 3.97 | 8.65 | 1.4 | 19.5 | 55 | 1550 | lacking the toxicity of paclitaxel | all tumors regressed to pretreatment levels | significant anti-cellular proliferative activity | – | – | –
6 | CC(=O)O[C@H]1C(=O)[C@]2(C)[C@@H](OC(=O)NCCN3C(=S)N(c4ccc(C#N)c(C(F)(F)F)c4)C(=O)C3(C)C)C[C@H]3OC[C@@]3(OC(C)=O)[C@H]2[C@H](OC(=O)c2ccccc2)[C@]2(O)C[C@H](OC(=O)[C@H](O)[C@@H](NC(=O)c3ccccc3)c3ccccc3)C(C)=C1C2(C)C [BP-196, 7-[imidazolidinyl-5", 5"-dimethyl-4"-oxo-3"-[(4"'-cyano-3"'-trifluoromethyl)phenyl]-2"-thioxo-1"ethylcarbamoxy]paclitaxel] | comparable cytotoxic activity to paclitaxel | readily formulated in standard aqueous vehicles | more water soluble than paclitaxel | – | – | – | – | – | – | – | – | – | – | – | –
7 | CC(=O)O[C@H]1C(=O)[C@@]2(C)[C@H]([C@H](OC(=O)c3ccccc3)[C@]3(O)C[C@H](OC(=O)[C@H](O)[C@@H](NC(=O)c4ccccc4)c4ccccc4)C(C)=C1C3(C)C)[C@]1(OC(C)=O)CO[C@@H]1C[C@@H]2O [Taxol, paclitaxel, reference compound] | – | – | – | – | 5 | 2.12 | 1.5 | 2.24 | – | – | – | – | about 30 % of patients | rapidly declines following infusion | 42 to 162
